Measured values published in ChEMBL document CHEMBL4145686, “Discovery of a Potent and Selective Steroidal Glucocorticoid Receptor Antagonist (ORIC-101)” (J Med Chem, 2018).

How the values were obtained:
[1] = biological target: T1, Androgen receptor (Homo sapiens, UniProt P10275); experiment: Agonist activity at AR (unknown origin) expressed in human LNCaP cells incubated for 20 hrs by luciferase reporter gene assay; assay type: cell-based
T1 sequence (P10275 whole entry): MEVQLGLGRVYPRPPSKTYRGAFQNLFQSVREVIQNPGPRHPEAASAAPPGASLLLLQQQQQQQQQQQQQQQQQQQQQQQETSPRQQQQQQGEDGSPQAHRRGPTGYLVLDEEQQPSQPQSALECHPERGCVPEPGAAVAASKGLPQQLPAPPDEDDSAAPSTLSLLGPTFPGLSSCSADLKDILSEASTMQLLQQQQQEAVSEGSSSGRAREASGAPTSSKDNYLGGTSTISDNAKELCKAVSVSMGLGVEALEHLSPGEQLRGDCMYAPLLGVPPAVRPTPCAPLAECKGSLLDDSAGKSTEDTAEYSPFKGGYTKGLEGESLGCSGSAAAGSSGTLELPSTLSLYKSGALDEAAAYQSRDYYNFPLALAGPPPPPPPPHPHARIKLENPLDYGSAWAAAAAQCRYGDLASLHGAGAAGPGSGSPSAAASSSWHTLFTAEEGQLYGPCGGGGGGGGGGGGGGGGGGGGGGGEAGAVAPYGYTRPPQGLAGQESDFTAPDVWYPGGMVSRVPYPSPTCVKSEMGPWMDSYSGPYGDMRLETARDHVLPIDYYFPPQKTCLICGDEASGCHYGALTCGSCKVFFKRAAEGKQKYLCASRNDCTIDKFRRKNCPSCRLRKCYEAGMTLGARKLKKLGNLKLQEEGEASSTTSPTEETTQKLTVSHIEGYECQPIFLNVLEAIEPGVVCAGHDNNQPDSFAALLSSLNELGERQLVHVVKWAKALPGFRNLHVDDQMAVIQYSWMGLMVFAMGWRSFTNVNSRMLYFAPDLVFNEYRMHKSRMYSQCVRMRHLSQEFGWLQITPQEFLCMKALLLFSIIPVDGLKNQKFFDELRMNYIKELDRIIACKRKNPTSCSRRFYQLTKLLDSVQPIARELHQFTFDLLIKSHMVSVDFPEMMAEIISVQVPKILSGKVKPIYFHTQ

[2] = Half life in rat at 0.5 mg/kg, iv; assay type: ADME, organism-based; conditions: in vivo
[3] = Clearance in rat at 0.5 mg/kg, iv; assay type: ADME, organism-based; conditions: in vivo
[4] = Oral bioavailability in rat at 5 mg/kg; assay type: ADME, organism-based; conditions: in vivo
[5] = biological target: T2, Glucocorticoid receptor (Homo sapiens, UniProt P04150); experiment: Agonist activity at human GR expressed in CHO-K1 cells incubated for 20 hrs by luciferase reporter gene assay; assay type: cell-based
T2 sequence (P04150 whole entry): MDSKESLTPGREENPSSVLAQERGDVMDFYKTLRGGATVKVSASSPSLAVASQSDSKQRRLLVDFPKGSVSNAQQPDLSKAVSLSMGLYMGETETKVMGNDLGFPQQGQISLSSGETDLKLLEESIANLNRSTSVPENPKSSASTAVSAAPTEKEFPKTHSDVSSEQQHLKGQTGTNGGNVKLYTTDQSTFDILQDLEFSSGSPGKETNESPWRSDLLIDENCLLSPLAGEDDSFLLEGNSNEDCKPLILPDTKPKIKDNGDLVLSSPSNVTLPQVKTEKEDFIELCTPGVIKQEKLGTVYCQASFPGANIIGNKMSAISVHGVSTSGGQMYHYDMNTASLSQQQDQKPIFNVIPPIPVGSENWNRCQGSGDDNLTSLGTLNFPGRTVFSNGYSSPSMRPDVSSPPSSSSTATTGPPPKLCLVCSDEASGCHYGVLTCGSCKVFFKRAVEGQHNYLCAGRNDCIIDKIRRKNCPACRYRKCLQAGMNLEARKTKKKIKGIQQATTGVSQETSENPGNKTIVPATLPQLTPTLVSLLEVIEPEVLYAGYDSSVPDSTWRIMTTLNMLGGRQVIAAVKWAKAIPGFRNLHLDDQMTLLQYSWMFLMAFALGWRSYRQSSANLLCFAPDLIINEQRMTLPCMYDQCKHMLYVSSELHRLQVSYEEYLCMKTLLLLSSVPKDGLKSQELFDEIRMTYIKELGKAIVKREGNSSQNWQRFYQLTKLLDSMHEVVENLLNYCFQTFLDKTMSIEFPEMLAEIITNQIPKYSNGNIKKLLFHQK

[6] = AUC in rat at 5 mg/kg, po; assay type: ADME, organism-based; conditions: in vivo
[7] = biological target: T3, androgen receptor (AR) (Homo sapiens, UniProt P10275); experiment: Agonist activity at AR (unknown origin) expressed in human LNCaP cells incubated for 20 hrs by luciferase reporter gene assay relative to mifepristone; assay type: cell-based; conditions: human LNCaP cells expressing AR
T3 sequence (P10275 whole entry): T1 sequence (P10275 whole entry)

[8] = biological target: T4, glucocorticoid receptor (GR) (Homo sapiens, UniProt P04150); experiment: Agonist activity at human GR expressed in CHO-K1 cells incubated for 20 hrs by luciferase reporter gene assay relative to dexamethasone; assay type: cell-based; conditions: CHO-K1 cells expressing human GR
T4 sequence (P04150 whole entry): T2 sequence (P04150 whole entry)

[9] = Cmax in rat at 5 mg/kg, po; assay type: ADME, organism-based; parameters: dose 5 mg/kg, route oral; conditions: in vivo
[10] = biological target: T2, Glucocorticoid receptor; experiment: Antagonist activity at human GR expressed in CHO-K1 cells assessed as reduction in dexamethasone-induced response incubated for 20 hrs by luciferase reporter gene assay; assay type: cell-based
[11] = Volume of distribution at steady state in rat at 0.5 mg/kg, iv; assay type: ADME, organism-based; conditions: in vivo, read-out: Vdss
[12] = biological target: T5, Glucocorticoid receptor (Canis lupus familiaris, UniProt A0A8C0QLS2); experiment: Antagonist activity at GR in dog PBMC assessed as reduction in dexamethasone-induced GILZ gene expression incubated for 6 hrs by RT-qPCR method; assay type: cell-based
T5 sequence (A0A8C0QLS2 whole entry): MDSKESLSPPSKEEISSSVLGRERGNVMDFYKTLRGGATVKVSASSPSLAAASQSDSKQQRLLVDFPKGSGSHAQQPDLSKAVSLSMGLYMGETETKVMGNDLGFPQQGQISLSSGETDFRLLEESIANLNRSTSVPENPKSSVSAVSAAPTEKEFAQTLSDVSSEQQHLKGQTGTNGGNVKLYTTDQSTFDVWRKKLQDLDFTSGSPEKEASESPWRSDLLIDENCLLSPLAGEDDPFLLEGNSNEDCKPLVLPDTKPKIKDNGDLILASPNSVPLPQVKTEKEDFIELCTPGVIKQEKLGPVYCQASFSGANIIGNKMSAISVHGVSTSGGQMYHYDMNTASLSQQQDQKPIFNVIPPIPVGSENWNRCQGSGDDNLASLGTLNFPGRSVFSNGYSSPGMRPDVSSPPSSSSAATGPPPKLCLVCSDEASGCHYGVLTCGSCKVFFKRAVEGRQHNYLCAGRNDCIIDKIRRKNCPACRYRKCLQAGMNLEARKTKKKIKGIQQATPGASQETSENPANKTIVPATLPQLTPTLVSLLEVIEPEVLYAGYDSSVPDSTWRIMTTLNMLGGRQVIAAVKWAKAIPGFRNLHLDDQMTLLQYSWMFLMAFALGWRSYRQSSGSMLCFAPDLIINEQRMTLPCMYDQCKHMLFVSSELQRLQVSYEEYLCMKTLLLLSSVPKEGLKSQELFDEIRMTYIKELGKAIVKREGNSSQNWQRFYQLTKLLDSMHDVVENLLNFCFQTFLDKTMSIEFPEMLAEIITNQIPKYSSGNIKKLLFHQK

[13] = biological target: T5, Glucocorticoid receptor; experiment: Antagonist activity at GR in dog PBMC assessed as reduction in dexamethasone-induced FKBP5 gene expression incubated for 6 hrs by RT-qPCR method; assay type: cell-based
[14] = biological target: T6, Glucocorticoid receptor (Sus scrofa, UniProt Q9N1U3); experiment: Antagonist activity at GR in mini pig PBMC assessed as reduction in dexamethasone-induced GILZ gene expression incubated for 24 hrs by RT-qPCR method; assay type: cell-based
T6 sequence (Q9N1U3 whole entry): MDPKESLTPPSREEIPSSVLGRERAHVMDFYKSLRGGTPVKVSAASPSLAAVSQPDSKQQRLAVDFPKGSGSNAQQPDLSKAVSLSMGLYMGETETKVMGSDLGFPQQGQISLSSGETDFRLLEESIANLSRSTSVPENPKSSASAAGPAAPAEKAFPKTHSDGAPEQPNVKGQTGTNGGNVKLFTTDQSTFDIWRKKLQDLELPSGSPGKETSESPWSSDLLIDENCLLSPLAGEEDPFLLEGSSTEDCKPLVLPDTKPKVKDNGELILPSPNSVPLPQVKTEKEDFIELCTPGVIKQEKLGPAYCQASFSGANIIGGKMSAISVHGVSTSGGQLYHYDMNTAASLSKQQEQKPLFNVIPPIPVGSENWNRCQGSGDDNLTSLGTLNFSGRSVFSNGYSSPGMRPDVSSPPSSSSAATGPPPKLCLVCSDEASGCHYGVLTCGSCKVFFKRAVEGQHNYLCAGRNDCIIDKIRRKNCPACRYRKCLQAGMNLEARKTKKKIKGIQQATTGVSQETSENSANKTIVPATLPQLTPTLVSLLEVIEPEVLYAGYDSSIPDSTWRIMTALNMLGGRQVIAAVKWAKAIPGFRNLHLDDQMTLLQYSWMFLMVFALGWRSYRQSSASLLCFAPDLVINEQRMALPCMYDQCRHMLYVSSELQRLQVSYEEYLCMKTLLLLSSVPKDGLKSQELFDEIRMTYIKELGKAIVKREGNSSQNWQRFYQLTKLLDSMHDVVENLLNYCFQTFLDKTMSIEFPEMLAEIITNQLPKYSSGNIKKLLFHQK

[15] = Antagonist activity at GR in monkey PBMC assessed as reduction in dexamethasone-induced GILZ gene expression incubated for 6 hrs by RT-qPCR method; assay type: cell-based; conditions: Macaca mulatta
[16] = biological target: T7, Cytochrome P450 2C8 (Homo sapiens, UniProt P10632); experiment: Inhibition of CYP2C8 (unknown origin) using […] as substrate; assay type: ADME
T7 sequence (P10632 whole entry): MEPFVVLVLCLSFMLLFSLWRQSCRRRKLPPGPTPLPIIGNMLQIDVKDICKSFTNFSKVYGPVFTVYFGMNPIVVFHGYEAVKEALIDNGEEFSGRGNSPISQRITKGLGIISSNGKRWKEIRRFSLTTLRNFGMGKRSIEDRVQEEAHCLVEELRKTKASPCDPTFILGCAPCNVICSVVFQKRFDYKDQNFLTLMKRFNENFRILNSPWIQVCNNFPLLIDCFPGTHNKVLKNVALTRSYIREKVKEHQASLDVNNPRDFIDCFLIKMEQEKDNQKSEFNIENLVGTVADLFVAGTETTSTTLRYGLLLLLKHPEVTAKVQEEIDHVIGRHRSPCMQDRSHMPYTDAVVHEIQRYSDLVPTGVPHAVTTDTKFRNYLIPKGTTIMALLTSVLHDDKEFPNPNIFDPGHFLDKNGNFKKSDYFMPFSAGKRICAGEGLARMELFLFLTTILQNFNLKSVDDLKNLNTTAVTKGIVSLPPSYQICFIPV

[17] = Antagonist activity at GR in monkey PBMC assessed as reduction in dexamethasone-induced FKBP5 gene expression incubated for 6 hrs by RT-qPCR method; assay type: cell-based; conditions: Macaca mulatta
[18] = biological target: T6, Glucocorticoid receptor; experiment: Antagonist activity at GR in mini pig PBMC assessed as reduction in dexamethasone-induced FKBP5 gene expression incubated for 24 hrs by RT-qPCR method; assay type: cell-based
[19] = biological target: Cytochrome P450 2C9 (Homo sapiens, UniProt P11712); experiment: Inhibition of CYP2C9 (unknown origin) using […] as substrate; assay type: ADME
Sequence of Cytochrome P450 2C9 (P11712 whole entry): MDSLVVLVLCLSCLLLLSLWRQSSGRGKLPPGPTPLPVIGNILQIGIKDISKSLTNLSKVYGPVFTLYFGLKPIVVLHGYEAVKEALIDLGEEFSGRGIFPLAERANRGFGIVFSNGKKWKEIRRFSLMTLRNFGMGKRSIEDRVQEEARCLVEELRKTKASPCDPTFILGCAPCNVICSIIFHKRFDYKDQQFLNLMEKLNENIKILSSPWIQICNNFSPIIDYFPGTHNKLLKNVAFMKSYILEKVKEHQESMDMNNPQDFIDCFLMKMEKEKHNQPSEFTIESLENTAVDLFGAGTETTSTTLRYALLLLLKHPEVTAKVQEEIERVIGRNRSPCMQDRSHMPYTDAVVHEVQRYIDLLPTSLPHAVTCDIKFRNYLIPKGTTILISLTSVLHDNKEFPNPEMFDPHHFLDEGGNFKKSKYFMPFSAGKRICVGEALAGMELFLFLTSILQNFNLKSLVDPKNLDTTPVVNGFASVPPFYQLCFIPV

Row | EC50 [1] [nM] | EC50 [5] [nM] | Emax at 20 h [7] [%] | IC50 [10] [nM] | Compound | half-life [2] [h] | clearance [3] [mL/min/kg] | bioavailability [4] [%] | AUC [6] [ng·h/mL] | Emax at 20 h [8] [%] | Cmax [9] [ng/mL] | Vd [11] [L/kg] | IC50 [12] [nM] | IC50 [13] [nM] | IC50 [14] [nM] | IC50 [15] [nM] | IC50 [16] [nM] | IC50 [17] [nM] | IC50 [18] [nM] | IC50 [19] [nM]
1 | > 2500 | > 2500 | 13.3 | 19.5 | CC(C)(C)C#C[C@]1(O)CC[C@H]2[C@@H]3CCC4=CC(=O)CCC4=C3[C@@H](c3ccc(N4CCCC4)cc3)C[C@@]21C | 3.6 | 4.67 | 0.7 | 167 | 1.2 | 21 | 1.5 |  |  |  |  |  |  |  | 
2 |  |  |  |  | CC#C[C@]1(O)CC[C@H]2[C@@H]3CCC4=CC(=O)CCC4=C3[C@@H](c3ccc(N(C)C)cc3)C[C@@]21C [MIFEPRISTONE] | 1.6 | 61.7 | 6.4 | 85 | 3.1 | 24 | 4.1 | 32.6 | 20.2 | 10.9 to 25.7 | 13.9 | 1500 | 21.9 | 19.7 | 4900
